One assay has as its target T1, mouse ABHD16A (Mus musculus, UniProt Q9Z1Q2).
T1 construct: full-length cDNA of human ABHD16A (Open Biosystems Catalog # MHS6278-202758315) or murine ABHD16A (Open Biosystems Catalog # MMM1013-202760516); host or cells: HEK293T, transient, pCMV-SPORT6
T1 sequence (Q9Z1Q2 1-558): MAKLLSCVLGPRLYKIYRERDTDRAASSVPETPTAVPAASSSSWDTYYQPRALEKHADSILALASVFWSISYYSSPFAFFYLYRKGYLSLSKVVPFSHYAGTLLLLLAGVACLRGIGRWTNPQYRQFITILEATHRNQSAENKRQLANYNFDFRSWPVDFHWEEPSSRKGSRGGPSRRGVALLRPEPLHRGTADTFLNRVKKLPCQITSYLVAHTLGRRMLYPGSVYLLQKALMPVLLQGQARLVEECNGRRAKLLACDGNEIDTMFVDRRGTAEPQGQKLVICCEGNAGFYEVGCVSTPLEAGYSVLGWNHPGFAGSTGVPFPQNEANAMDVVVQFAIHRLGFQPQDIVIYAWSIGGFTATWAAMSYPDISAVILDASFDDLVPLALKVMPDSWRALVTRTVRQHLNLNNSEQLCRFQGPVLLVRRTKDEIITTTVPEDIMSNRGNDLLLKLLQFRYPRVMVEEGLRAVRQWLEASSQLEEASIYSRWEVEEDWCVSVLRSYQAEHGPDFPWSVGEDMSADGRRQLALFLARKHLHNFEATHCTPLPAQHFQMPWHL
As to the kind of experiment: Competitive gel-based ABPP, mouse ABHD16A-transfected HEK293T proteome. The assay is classed as biochemical. The settings on record: 30 min, 37° C., then FP-rhodamine 2 μM.

Assay [1] relates to human lymphoblast cell lines (LCLs). Kind of assay: Lyso-PS content of treated LCLs. The assay is classed as cell-based. As to conditions: 1 μM, 4 h. How it is done:
ABHD16A^+/+, ABHD16A^+/+, and ABHD16A^−/− littermates of 10 weeks age were anaesthetized by isoflurane and killed by decapitation. The tissues (brains were sliced laterally into two hemispheres; entire spinal cord) were harvested, weighed, and immediately submerged in liquid N2. Tissues (one half brain or entire spinal cord) were then Dounce-homogenized in 8 mL of 2:1:1 (vol/vol/vol) CHCl3: MeOH: PBS containing the internal standard mix (1 nmol 17:1 FFA, and 100 pmol each of 17:1 lyso-PS, 17:0-20:4 PS, 17:1 lyso-PC, 17:0-20:4 PC, 17:0-20:4 PE and 50 pmol of 2-AG-d5). Homogenates were transferred to a glass vial and centrifuged at 2800×g for 10 minutes to separate the two phases. The organic phase (bottom) was removed, 200 μL of formic acid was added to acidify the aqueous homogenate (to enhance extraction of phospholipids), and CHCl3 was added to make up 8 mL volume. […]
All the metabolites analyzed in this study were quantified using the multiple reaction monitoring (MRM) methods the targeted LC/MS analysis was done using an Agilent Technologies 6460 Triple Quad LC/M with an Agilent Technologies 1290 Infinity series quaternary pump. All data was collected using the LC/MS Data Acquisition mode of the Mass Hunter Workstation Software version B.05.00 build 5.0.5027.0 SP, and analyzed using the Quantitative Analysis mode of the same software. […]

This is an account of results in patent US20170313669A1, “LACTONE COMPOUNDS AND METHODS OF MAKING AND USING SAME” (THE SCRIPPS RESEARCH INSTITUTE, priority 2015, published 2017).

The term IC50 denotes the point on the concentration scale where inhibition reaches its midpoint. A higher IC50 goes with weaker potency. For the compound `CCCCCCCCCCCCCC1OC(=O)/C1=C\CCCCC(N)=O` (stereo not drawn) [KC01, (Z)-6-(2-oxo-4-tridecyloxetan-3-ylidene)hexanamide], the 50% inhibitory concentration (IC50) on mouse ABHD16A was around 500 nM. Besides, in assay [1] (ABHD12-null LCL), the “secreted lyso-PSs” value is recorded as “significantly lowered”. The “cellular lyso-PSs” value in assay [1] (all LCLs) is “decreased cellular lyso-PSs”.
